Where two headings read alike, the source gives them in different places.
Experiments:
Assay type in all cases: cell-based
BaF3_HER2WT cells = BaF3_HER2WT cells (Homo sapiens, UniProt P04626); experiment: Cell growth inhibition assay (CellTiterGlo), BaF3_HER2WT
BaF3_HER2YVMA cells = BaF3_HER2YVMA cells (Homo sapiens, UniProt P04626, DUP772-775, cells depend on it); experiment: Cell growth inhibition assay (CellTiterGlo), BaF3_HER2YVMA
BaF3_EGFRWT cells = BaF3_EGFRWT cells (Homo sapiens, UniProt P00533); experiment: Cell growth inhibition assay (CellTiterGlo), BaF3_EGFRWT
BaF3_EGFRWT cells, sequence (P00533 whole entry, change not shown): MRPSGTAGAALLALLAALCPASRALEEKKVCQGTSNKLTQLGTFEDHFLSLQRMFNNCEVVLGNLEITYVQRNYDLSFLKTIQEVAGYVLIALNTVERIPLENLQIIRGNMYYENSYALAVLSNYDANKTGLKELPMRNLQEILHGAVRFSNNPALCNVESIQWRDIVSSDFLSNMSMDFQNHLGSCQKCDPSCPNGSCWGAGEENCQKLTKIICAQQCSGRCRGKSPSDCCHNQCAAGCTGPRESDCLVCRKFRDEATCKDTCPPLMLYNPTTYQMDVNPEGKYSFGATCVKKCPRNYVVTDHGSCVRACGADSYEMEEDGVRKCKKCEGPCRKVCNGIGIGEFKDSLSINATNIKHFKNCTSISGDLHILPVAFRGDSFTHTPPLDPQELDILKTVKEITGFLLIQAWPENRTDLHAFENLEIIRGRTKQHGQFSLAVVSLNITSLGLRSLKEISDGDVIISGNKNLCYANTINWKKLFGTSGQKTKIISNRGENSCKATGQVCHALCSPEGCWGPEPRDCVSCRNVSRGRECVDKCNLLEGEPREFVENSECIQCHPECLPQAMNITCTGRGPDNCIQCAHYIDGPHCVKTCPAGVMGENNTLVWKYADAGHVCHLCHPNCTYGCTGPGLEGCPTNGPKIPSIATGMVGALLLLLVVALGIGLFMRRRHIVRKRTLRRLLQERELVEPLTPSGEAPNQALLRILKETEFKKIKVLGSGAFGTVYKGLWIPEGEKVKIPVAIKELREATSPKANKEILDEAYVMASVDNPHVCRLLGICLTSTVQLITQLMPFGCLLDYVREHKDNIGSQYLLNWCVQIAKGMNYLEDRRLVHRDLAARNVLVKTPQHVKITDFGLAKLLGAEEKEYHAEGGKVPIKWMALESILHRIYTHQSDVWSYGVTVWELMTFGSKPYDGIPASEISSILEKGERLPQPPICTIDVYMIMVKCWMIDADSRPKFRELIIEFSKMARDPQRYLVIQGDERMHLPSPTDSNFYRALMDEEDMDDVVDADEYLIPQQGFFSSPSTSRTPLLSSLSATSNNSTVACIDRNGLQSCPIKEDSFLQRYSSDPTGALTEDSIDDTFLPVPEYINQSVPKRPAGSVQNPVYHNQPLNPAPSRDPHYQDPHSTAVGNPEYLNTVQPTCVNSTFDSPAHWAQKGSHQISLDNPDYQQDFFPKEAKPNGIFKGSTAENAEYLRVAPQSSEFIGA

[1] = cell growth inhibition, 3 days treatment, read-out: HER2 WT IC50
[2] = cell growth inhibition, 3 days treatment, read-out: HER2 - YVMA IC50
[3] = cell growth inhibition, 80 ng/mL EGF, 3 days treatment, read-out: EGFR WT IC50
[4] = 3-day treatment, CellTiterGlo, read-out: Cell growth inhibition activity, HER2 WT
[5] = 3-day treatment, CellTiterGlo, read-out: Cell growth inhibition activity, HER2 - YVMA
[6] = 3-day treatment, CellTiterGlo, read-out: Cell growth inhibition activity, EGFR WT

BaF3_HER2YVMA cells, sequence (P04626 with tags, fused parts or gaps DUP772-775): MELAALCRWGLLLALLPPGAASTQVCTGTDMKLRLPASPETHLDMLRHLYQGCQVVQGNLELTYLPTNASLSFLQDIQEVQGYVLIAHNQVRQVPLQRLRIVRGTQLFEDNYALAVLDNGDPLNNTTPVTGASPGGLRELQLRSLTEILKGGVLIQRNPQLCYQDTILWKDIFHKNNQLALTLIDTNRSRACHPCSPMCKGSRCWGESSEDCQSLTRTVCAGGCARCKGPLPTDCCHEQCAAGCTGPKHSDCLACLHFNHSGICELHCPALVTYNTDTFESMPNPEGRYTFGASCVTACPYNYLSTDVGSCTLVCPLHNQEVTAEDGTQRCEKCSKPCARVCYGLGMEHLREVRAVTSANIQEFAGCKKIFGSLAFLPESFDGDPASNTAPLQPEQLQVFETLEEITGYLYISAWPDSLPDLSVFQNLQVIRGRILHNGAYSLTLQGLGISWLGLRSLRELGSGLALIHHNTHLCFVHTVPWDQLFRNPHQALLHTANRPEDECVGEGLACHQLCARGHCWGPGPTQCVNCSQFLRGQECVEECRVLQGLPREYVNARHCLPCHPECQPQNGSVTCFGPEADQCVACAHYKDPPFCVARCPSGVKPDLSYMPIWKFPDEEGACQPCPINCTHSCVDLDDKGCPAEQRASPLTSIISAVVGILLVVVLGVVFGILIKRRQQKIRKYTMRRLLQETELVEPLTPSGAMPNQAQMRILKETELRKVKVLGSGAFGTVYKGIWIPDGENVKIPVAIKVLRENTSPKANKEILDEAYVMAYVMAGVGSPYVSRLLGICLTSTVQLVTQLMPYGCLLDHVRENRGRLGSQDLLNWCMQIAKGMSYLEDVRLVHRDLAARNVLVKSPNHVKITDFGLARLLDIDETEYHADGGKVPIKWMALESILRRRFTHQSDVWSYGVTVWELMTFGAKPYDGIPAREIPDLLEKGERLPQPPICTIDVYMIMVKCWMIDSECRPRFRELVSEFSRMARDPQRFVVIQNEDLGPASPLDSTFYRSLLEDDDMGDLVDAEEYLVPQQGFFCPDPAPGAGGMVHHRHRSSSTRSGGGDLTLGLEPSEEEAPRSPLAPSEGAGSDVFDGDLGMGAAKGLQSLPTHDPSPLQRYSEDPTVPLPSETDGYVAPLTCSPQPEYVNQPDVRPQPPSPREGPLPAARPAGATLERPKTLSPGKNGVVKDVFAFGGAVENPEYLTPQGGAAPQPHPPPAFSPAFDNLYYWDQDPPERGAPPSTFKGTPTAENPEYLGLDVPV
BaF3_HER2WT cells, sequence (P04626 whole entry, change not shown): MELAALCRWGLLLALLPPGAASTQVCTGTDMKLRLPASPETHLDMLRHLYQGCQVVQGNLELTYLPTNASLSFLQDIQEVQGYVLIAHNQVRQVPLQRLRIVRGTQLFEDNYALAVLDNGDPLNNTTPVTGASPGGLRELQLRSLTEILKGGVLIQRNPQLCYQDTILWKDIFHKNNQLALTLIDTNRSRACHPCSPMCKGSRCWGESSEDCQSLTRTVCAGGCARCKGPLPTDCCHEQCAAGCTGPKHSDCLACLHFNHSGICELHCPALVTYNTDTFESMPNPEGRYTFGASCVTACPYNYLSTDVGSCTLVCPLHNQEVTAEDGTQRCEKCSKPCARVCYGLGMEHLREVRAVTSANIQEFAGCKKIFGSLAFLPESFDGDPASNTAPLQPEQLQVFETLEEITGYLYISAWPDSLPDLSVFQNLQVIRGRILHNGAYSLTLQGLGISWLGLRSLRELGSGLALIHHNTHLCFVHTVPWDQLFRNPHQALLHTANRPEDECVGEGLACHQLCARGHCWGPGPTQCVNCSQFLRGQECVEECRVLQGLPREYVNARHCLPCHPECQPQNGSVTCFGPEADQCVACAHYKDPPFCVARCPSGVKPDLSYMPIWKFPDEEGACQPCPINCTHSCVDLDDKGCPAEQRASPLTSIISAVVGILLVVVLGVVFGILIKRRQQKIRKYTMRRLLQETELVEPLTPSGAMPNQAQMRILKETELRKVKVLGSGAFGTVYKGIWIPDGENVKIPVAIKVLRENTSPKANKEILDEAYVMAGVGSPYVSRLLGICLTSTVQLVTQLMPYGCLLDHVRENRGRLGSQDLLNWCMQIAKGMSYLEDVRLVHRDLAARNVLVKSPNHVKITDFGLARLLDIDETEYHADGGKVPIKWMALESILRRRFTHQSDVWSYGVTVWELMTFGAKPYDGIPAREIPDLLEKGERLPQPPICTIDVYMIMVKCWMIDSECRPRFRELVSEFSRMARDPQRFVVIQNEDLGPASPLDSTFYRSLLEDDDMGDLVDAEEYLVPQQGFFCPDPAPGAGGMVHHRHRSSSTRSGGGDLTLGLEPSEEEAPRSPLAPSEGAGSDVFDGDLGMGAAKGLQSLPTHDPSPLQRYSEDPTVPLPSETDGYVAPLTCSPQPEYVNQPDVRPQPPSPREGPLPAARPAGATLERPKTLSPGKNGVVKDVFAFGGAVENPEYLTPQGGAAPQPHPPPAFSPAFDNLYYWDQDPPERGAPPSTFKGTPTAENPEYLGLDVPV

Structure (SMILES)	GI50 (BaF3_HER2WT cells; [1])	GI50 (BaF3_HER2YVMA cells; [2])	GI50 (BaF3_EGFRWT cells; [3])	GI50 (BaF3_HER2WT cells; [4])	GI50 (BaF3_HER2YVMA cells; [5])	GI50 (BaF3_EGFRWT cells; [6])
Cc1cc(Nc2ncnn3ccc(C4CCCN(C(=O)C(F)Cl)CC4)c23)ccc1Oc1ccn2ncnc2c1 (single isomer, unassigned) [Examples 145, 146, 147 and 148, second eluting isomer, 1-(4-(4-((4-([1,2,4]triazolo[1,5-a]pyridin-7-yloxy)-3-methylphenyl)amino)pyrrolo[2,1-f][1,2,4]triazin-5-yl)azepan-1-yl)-2-chloro-2-fluoroethan-1-one]	< 0.2 µM	< 0.2 µM	0.5 to 1.5 µM	–	–	–
Cc1cc(Nc2ncnn3ccc(C4CCCN(C(=O)C(F)Cl)CC4)c23)ccc1Oc1ccn2ncnc2c1 (single isomer, unassigned) [Examples 145, 146, 147 and 148, third eluting isomer, 1-(4-(4-((4-([1,2,4]triazolo[1,5-a]pyridin-7-yloxy)-3-methylphenyl)amino)pyrrolo[2,1-f][1,2,4]triazin-5-yl)azepan-1-yl)-2-chloro-2-fluoroethan-1-one]	0.2 to 0.5 µM	0.5 to 1.5 µM	1.5 to 5 µM	–	–	–
Cc1cc(Nc2ncnn3ccc(C4CN(C(=O)/C=C/C5CCCN5C)C4)c23)ccc1Oc1ccn2ncnc2c1 (single isomer, unassigned) [Examples 171 and 172, second eluting isomer, (E)-1-(3-(4-((4-([1,2,4]triazolo[1,5-a]pyridin-7-yloxy)-3-methylphenyl)amino)pyrrolo[2,1-f][1,2,4]triazin-5-yl)azetidin-1-yl)-3-(1-methylpyrrolidin-2-yl)prop-2-en-1-one]	< 0.2 µM	< 0.2 µM	1.5 to 5 µM	–	–	–
Cc1cc(Nc2ncnn3ccc(C4CCN(C(=O)[C@H](F)Cl)CC4)c23)ccc1Oc1ccn2ncnc2c1 (single isomer, unassigned) [Examples 173 and 174, first eluting isomer]	0.2 to 0.5 µM	1.5 to 5 µM	1.5 to 5 µM	–	–	–
Cc1cc(Nc2ncnn3ccc(C4CC5CCC4CN5C(=O)/C=C/CN(C)C)c23)ccc1Oc1ccn2ncnc2c1 (single isomer, unassigned; first eluting) [Examples 137 and 138, first eluting isomer]	< 0.2 µM	0.2 to 0.5 µM	1.5 to 5 µM	–	–	–
Cc1cc(Nc2ncnn3ccc(C4CCN(C(=O)[C@@H](F)Cl)CC4)c23)ccc1Oc1ccn2ncnc2c1 (single isomer, unassigned; second eluting) [Examples 173 and 174, second eluting isomer, (5)-1-(4-(4-((4-([1,2,4]triazolo[1,5-a]pyridin-7-yloxy)-3-methylphenyl)amino)pyrrolo[2,1-f][1,2,4]triazin-5-yl)piperidin-1-yl)-2-chloro-2-fluoroethan-1-one]	< 0.2 µM	< 0.2 µM	1.5 to 5 µM	–	–	–
C=CC(=O)N1CC(c2ccn3ncnc(Nc4ccc(Oc5ccn6ncnc6c5)c(C)c4)c23)C1 [Example 3, 1-(3-(4-((4-([1,2,4]triazolo[1,5-a]pyridin-7-yloxy)-3-methylphenyl)amino)pyrrolo[2,1-f][1,2,4]triazin-5-yl)azetidin-1-yl)prop-2-en-1-one]	–	–	–	< 0.2 µM	< 0.2 µM	0.5 to 1.5 µM
C=CC(=O)N1CCCC(c2ccn3ncnc(Nc4ccc(Oc5ccn6ncnc6c5)c(C)c4)c23)CC1 (stereo not drawn) [Example 9, 1-(4-(4-((4-([1,2,4]triazolo[1,5-a]pyridin-7-yloxy)-3-methylphenyl)amino)pyrrolo[2,1-f][1,2,4]triazin-5-yl)azepan-1-yl)prop-2-en-1-one]	–	–	–	< 0.2 µM	< 0.2 µM	0.2 to 0.5 µM
C=CC(=O)N1CC2(C1)CN(c1ccn3ncnc(Nc4cnc(Oc5ccn6ncnc6c5)c(Cl)c4)c13)C2 [Example 15, 1-(6-(4-((6-([1,2,4]triazolo[1,5-a]pyridin-7-yloxy)-5-chloropyridin-3-yl)amino)pyrrolo[2,1-f][1,2,4]triazin-5-yl)-2,6-diazaspiro[3.3]heptan-2-yl)prop-2-en-1-one]	–	–	–	1.5 to 5 µM	> 5 µM	1.5 to 5 µM
C=CC(=O)N1CC2(CC(c3ccn4ncnc(Nc5ccc(Oc6ccn7ncnc7c6)c(C)c5)c34)C2)C1 [Example 17, 1-(6-(4-((4-([1,2,4]triazolo[1,5-a]pyridin-7-yloxy)-3-methylphenyl)amino)pyrrolo[2,1-f][1,2,4]triazin-5-yl)-2-azaspiro[3.3]heptan-2-yl)prop-2-en-1-one]	–	–	–	< 0.2 µM	< 0.2 µM	1.5 to 5 µM
C=C(C(=O)O)C(=O)N1CCC(c2ccn3ncnc(Nc4ccc(Oc5ccn6ncnc6c5)c(C)c4)c23)CC1 [Example 20, 2-(4-(4-((4-([1,2,4]triazolo[1,5-a]pyridin-7-yloxy)-3-methylphenyl)amino)pyrrolo[2,1-f][1,2,4]triazin-5-yl)piperidine-1-carbonyl)acrylic acid]	–	–	–	1.5 to 5 µM	1.5 to 5 µM	1.5 to 5 µM
Cc1cc(Nc2ncnn3ccc(C4CCN(C(=O)/C=C/CN5CCN(C)CC5)CC4)c23)ccc1Oc1ccn2ncnc2c1 [Example 24, (E)-1-(4-(4-((4-([1,2,4]triazolo[1,5-a]pyridin-7-yloxy)-3-methylphenyl)amino)pyrrolo[2,1-f][1,2,4]triazin-5-yl)piperidin-1-yl)-4-(4-methylpiperazin-1-yl)but-2-en-1-one]	–	–	–	< 0.2 µM	0.5 to 1.5 µM	1.5 to 5 µM
Cc1cc(Nc2ncnn3ccc(C4CCN(C(=O)/C=C/[C@H]5CCCN5C)CC4)c23)ccc1Oc1ccn2ncnc2c1 [Example 25, (R,E)-1-(4-(4-((4-([1,2,4]triazolo[1,5-a]pyridin-7-yloxy)-3-methylphenyl)amino)pyrrolo[2,1-f][1,2,4]triazin-5-yl)piperidin-1-yl)-3-(1-methylpyrrolidin-2-yl)prop-2-en-1-one]	–	–	–	< 0.2 µM	< 0.2 µM	1.5 to 5 µM
C=C(F)C(=O)N1CC=C(c2ccn3ncnc(Nc4ccc(Oc5ccn6ncnc6c5)c(C)c4)c23)CC1 [Example 26, 1-(4-(4-((4-([1,2,4]triazolo[1,5-a]pyridin-7-yloxy)-3-methylphenyl)amino)pyrrolo[2,1-f][1,2,4]triazin-5-yl)-3,6-dihydropyridin-1(2H)-yl)-2-fluoroprop-2-en-1-one]	–	–	–	0.2 to 0.5 µM	1.5 to 5 µM	1.5 to 5 µM
C=C(C#N)C(=O)N1CCC(c2ccn3ncnc(Nc4ccc(Oc5ccn6ncnc6c5)c(C)c4)c23)CC1 [Example 27, 2-(4-(4-((4-([1,2,4]triazolo[1,5-a]pyridin-7-yloxy)-3-methylphenyl)amino)pyrrolo[2,1-f][1,2,4]triazin-5-yl)piperidine-1-carbonyl)acrylonitrile]	–	–	–	0.5 to 1.5 µM	1.5 to 5 µM	1.5 to 5 µM
C=CC(=O)N1CC=C(c2ccn3ncnc(Nc4ccc(Oc5ccn6ncnc6c5)c(C)c4)c23)C1 [Example 28, 1-(3-(4-((4-([1,2,4]triazolo[1,5-a]pyridin-7-yloxy)-3-methylphenyl)amino)pyrrolo[2,1-f][1,2,4]triazin-5-yl)-2,5-dihydro-1H-pyrrol-1-yl)prop-2-en-1-one acetate]	–	–	–	< 0.2 µM	0.5 to 1.5 µM	1.5 to 5 µM
Cc1cc(Nc2ncnn3ccc(C4=CCN(C(=O)/C=C/CN(C)C)C4)c23)ccc1Oc1ccn2ncnc2c1 [Example 29, (E)-1-(3-(4-((4-([1,2,4]triazolo[1,5-a]pyridin-7-yloxy)-3-methylphenyl)amino)pyrrolo[2,1-f][1,2,4]triazin-5-yl)-2,5-dihydro-1H-pyrrol-1-yl)-4-(dimethylamino)but-2-en-1-one acetate]	–	–	–	< 0.2 µM	1.5 to 5 µM	1.5 to 5 µM
C=C(CN(C)C)C(=O)N1C2C=C(c3ccn4ncnc(Nc5ccc(Oc6ccn7ncnc7c6)c(C)c5)c34)CC1CC2 (stereo not drawn) [Example 30, 1-(3-(4-((4-([1,2,4]triazolo[1,5-a]pyridin-7-yloxy)-3-methylphenyl)amino)pyrrolo[2,1-f][1,2,4]triazin-5-yl)-8-azabicyclo[3.2.1]oct-2-en-8-yl)-2-((dimethylamino)methyl)prop-2-en-1-one acetate]	–	–	–	< 0.2 µM	< 0.2 µM	1.5 to 5 µM
Cc1cc(Nc2ccn3ncnc(C4CC5CCC(C4)N5C(=O)/C=C/CN(C)C)c23)ccc1Oc1ccn2cnnc2c1 (stereo not drawn) [Example 33, (E)-1-(3-(5-((4-([1,2,4]triazolo[4,3-a]pyridin-7-yloxy)-3-methylphenyl)amino)pyrrolo[2,1-f][1,2,4]triazin-4-yl)-8-azabicyclo[3.2.1]octan-8-yl)-4-(dimethylamino)but-2-en-1-one acetate]	–	–	–	< 0.2 µM	0.2 to 0.5 µM	1.5 to 5 µM
Cc1cc(Nc2ncnn3ccc(C4CCN(C(=O)C(F)Cl)CC4)c23)ccc1Oc1ccn2ncnc2c1 (stereo not drawn) [Example 35, 1-(4-(4-((4-([1,2,4]triazolo[1,5-a]pyridin-7-yloxy)-3-methylphenyl)amino)pyrrolo[2,1-f][1,2,4]triazin-5-yl)piperidin-1-yl)-2-chloro-2-fluoroethan-1-one acetate]	–	–	–	< 0.2 µM	< 0.2 µM	1.5 to 5 µM
Cc1cc(Nc2ncnn3ccc(C4CCN(C(=O)C5CC(=O)N5)CC4)c23)ccc1Oc1ccn2ncnc2c1 (stereo not drawn) [Example 36, 4-(4-(4-((4-([1,2,4]triazolo[1,5-a]pyridin-7-yloxy)-3-methylphenyl)amino)pyrrolo[2,1-f][1,2,4]triazin-5-yl)piperidine-1-carbonyl)azetidin-2-one acetate]	–	–	–	1.5 to 5 µM	1.5 to 5 µM	1.5 to 5 µM
Cc1cc(Nc2ncnn3ccc(C4CN(C(=O)/C=C/CN5CCOCC5)C4)c23)ccc1Oc1ccn2ncnc2c1 [Example 37, (E)-1-(3-(4-((4-([1,2,4]triazolo[1,5-a]pyridin-7-yloxy)-3-methylphenyl)amino)pyrrolo[2,1-f][1,2,4]triazin-5-yl)azetidin-1-yl)-4-morpholinobut-2-en-1-one]	–	–	–	< 0.2 µM	< 0.2 µM	1.5 to 5 µM

Source: US20240132521A1, “COMPOUNDS AND METHODS FOR MODULATING HER2” (Iambic Therapeutics, Inc., priority 2022, published 2024)
